# Data: PubChem BioAssay AID1918942 (Molecular Pharmacology Branch, DTP, NCI, 2023)
# pIC50: −log10 of the molar value.
# Tested on: 743489-274-T-PDC complex spheroid viability
# Assay: Anticancer human tumor 743489-274-T-PDC patient-derived renal cell carcinoma cell line growth inhibition
# Conditions: for pIC50: curve of first compound; for viability, T/C: stronger effect = lower value
# Outline: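 Multicellular complex spheroids of tumor cells with human endothelial cells (HUVEC) and mesenchymal stem cells; the LSD1 inhibitor iadademstat was combined with standard-of-care or investigational agents. Top concentration at or near clinical Cmax, half-log dilutions; final DMSO ≤0.25%.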
# [1] = second compound 0.1 µM, first compound 0.0316 µM
# [2] = second compound 0.1 µM, first compound 0.1 µM
# [3] = second compound 0.1 µM, first compound 0.316 µM
# [4] = second compound 0.1 µM, first compound 1 µM
# [5] = second compound 0.1 µM, first compound 3.16 µM
# [6] = second compound 0.1 µM, first compound 10 µM
# [7] = second compound 0.316 µM, first compound 0.0316 µM
# [8] = second compound 0.316 µM, first compound 0.1 µM
# [9] = second compound 0.316 µM, first compound 0.316 µM
# [10] = second compound 0.316 µM, first compound 1 µM
# [11] = second compound 0.316 µM, first compound 3.16 µM
# [12] = second compound 0.316 µM, first compound 10 µM
# [13] = second compound 1 µM, first compound 0.0316 µM
# [14] = second compound 1 µM, first compound 0.1 µM
# [15] = second compound 1 µM, first compound 0.316 µM
# [16] = second compound 1 µM, first compound 1 µM
# [17] = second compound 1 µM, first compound 3.16 µM
# [18] = second compound 1 µM, first compound 10 µM
# [19] = second compound 3.16 µM, first compound 0.0316 µM
# [20] = second compound 3.16 µM, first compound 0.1 µM
# [21] = second compound 3.16 µM, first compound 0.316 µM
# [22] = second compound 3.16 µM, first compound 1 µM
# [23] = second compound 3.16 µM, first compound 3.16 µM
# [24] = second compound 3.16 µM, first compound 10 µM
# [25] = second compound 10 µM, first compound 0.0316 µM
# [26] = second compound 10 µM, first compound 0.1 µM
# [27] = second compound 10 µM, first compound 0.316 µM
# [28] = second compound 10 µM, first compound 1 µM
# [29] = second compound 10 µM, first compound 3.16 µM
# [30] = second compound 10 µM, first compound 10 µM
# [31] = second compound 0.1 µM, first compound 0.00949 µM
# [32] = second compound 0.1 µM, first compound 0.03 µM
# [33] = second compound 0.1 µM, first compound 0.0949 µM
# [34] = second compound 0.1 µM, first compound 0.3 µM
# [35] = second compound 0.316 µM, first compound 0.00949 µM
# [36] = second compound 0.316 µM, first compound 0.03 µM
# [37] = second compound 0.316 µM, first compound 0.0949 µM
# [38] = second compound 0.316 µM, first compound 0.3 µM
# [39] = second compound 1 µM, first compound 0.00949 µM
# [40] = second compound 1 µM, first compound 0.03 µM
# [41] = second compound 1 µM, first compound 0.0949 µM
# [42] = second compound 1 µM, first compound 0.3 µM
# [43] = second compound 3.16 µM, first compound 0.00949 µM
# [44] = second compound 3.16 µM, first compound 0.03 µM
# [45] = second compound 3.16 µM, first compound 0.0949 µM
# [46] = second compound 3.16 µM, first compound 0.3 µM
# [47] = second compound 10 µM, first compound 0.00949 µM
# [48] = second compound 10 µM, first compound 0.03 µM
# [49] = second compound 10 µM, first compound 0.0949 µM
# [50] = second compound 10 µM, first compound 0.3 µM
# 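Note: spheroids exposed to compounds for 7 days before readout.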
# 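Throughout, for viability, T/C: 100% = DMSO vehicle control wells.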
compound,measurement,setting,value
CC1(C)CCC(CN2CCN(c3ccc(C(=O)NS(=O)(=O)c4ccc(NCC5CCOCC5)c([N+](=O)[O-])c4)c(Oc4cnc5[nH]ccc5c4)c3)CC2)=C(c2ccc(Cl)cc2)C1 + NC1CCC(NC2CC2c2ccccc2)CC1,pIC50,second compound 0.1 µM,< 5.00
same,pIC50,second compound 0.316 µM,< 5.00
same,pIC50,second compound 1 µM,< 5.00
same,pIC50,second compound 3.16 µM,< 5.00
same,pIC50,second compound 10 µM,< 5.00
same,"viability, T/C",[1],105%
same,"viability, T/C",[2],124%
same,"viability, T/C",[3],114%
same,"viability, T/C",[4],105%
same,"viability, T/C",[5],125%
same,"viability, T/C",[6],124%
same,"viability, T/C",[7],125%
same,"viability, T/C",[8],122%
same,"viability, T/C",[9],116%
same,"viability, T/C",[10],109%
same,"viability, T/C",[11],117%
same,"viability, T/C",[12],123%
same,"viability, T/C",[13],125%
same,"viability, T/C",[14],114%
same,"viability, T/C",[15],119%
same,"viability, T/C",[16],126%
same,"viability, T/C",[17],134%
same,"viability, T/C",[18],136%
same,"viability, T/C",[19],114%
same,"viability, T/C",[20],130%
same,"viability, T/C",[21],134%
same,"viability, T/C",[22],114%
same,"viability, T/C",[23],117%
same,"viability, T/C",[24],111%
same,"viability, T/C",[25],128%
same,"viability, T/C",[26],117%
same,"viability, T/C",[27],118%
same,"viability, T/C",[28],122%
same,"viability, T/C",[29],129%
same,"viability, T/C",[30],102%
CC1COCCN1c1cc(C2(S(C)(=N)=O)CC2)nc(-c2ccnc3[nH]ccc23)n1 (stereo not given) + NC1CCC(NC2CC2c2ccccc2)CC1,pIC50,second compound 0.1 µM,< 5.00
same,pIC50,second compound 0.316 µM,< 5.00
same,pIC50,second compound 1 µM,< 5.00
same,pIC50,second compound 3.16 µM,< 5.00
same,pIC50,second compound 10 µM,< 5.00
same,"viability, T/C",[1],108%
same,"viability, T/C",[2],106%
same,"viability, T/C",[3],108%
same,"viability, T/C",[4],116%
same,"viability, T/C",[5],93.7%
same,"viability, T/C",[6],92.1%
same,"viability, T/C",[7],99.6%
same,"viability, T/C",[8],111%
same,"viability, T/C",[9],107%
same,"viability, T/C",[10],108%
same,"viability, T/C",[11],112%
same,"viability, T/C",[12],98.6%
same,"viability, T/C",[13],103%
same,"viability, T/C",[14],123%
same,"viability, T/C",[15],115%
same,"viability, T/C",[16],113%
same,"viability, T/C",[17],99.8%
same,"viability, T/C",[18],94.9%
same,"viability, T/C",[19],112%
same,"viability, T/C",[20],103%
same,"viability, T/C",[21],107%
same,"viability, T/C",[22],106%
same,"viability, T/C",[23],98.5%
same,"viability, T/C",[24],92.7%
same,"viability, T/C",[25],112%
same,"viability, T/C",[26],103%
same,"viability, T/C",[27],111%
same,"viability, T/C",[28],121%
same,"viability, T/C",[29],106%
same,"viability, T/C",[30],94.6%
CCN(c1cc(-c2ccc(CN3CCOCC3)cc2)cc(C(=O)NCc2c(C)cc(C)[nH]c2=O)c1C)C1CCOCC1 + NC1CCC(NC2CC2c2ccccc2)CC1,pIC50,second compound 0.1 µM,< 5.52
same,pIC50,second compound 0.316 µM,< 5.52
same,pIC50,second compound 1 µM,< 5.52
same,pIC50,second compound 3.16 µM,< 5.52
same,pIC50,second compound 10 µM,< 5.52
same,"viability, T/C",[31],104%
same,"viability, T/C",[32],103%
same,"viability, T/C",[33],101%
same,"viability, T/C",[34],102%
same,"viability, T/C","second compound 0.1 µM, first compound 0.949 µM",107%
same,"viability, T/C","second compound 0.1 µM, first compound 3 µM",104%
same,"viability, T/C",[35],91.1%
same,"viability, T/C",[36],98.5%
same,"viability, T/C",[37],97.4%
same,"viability, T/C",[38],96.2%
same,"viability, T/C","second compound 0.316 µM, first compound 0.949 µM",104%
same,"viability, T/C","second compound 0.316 µM, first compound 3 µM",102%
same,"viability, T/C",[39],99.8%
same,"viability, T/C",[40],106%
same,"viability, T/C",[41],101%
same,"viability, T/C",[42],105%
same,"viability, T/C","second compound 1 µM, first compound 0.949 µM",104%
same,"viability, T/C","second compound 1 µM, first compound 3 µM",106%
same,"viability, T/C",[43],107%
same,"viability, T/C",[44],106%
same,"viability, T/C",[45],110%
same,"viability, T/C",[46],105%
same,"viability, T/C","second compound 3.16 µM, first compound 0.949 µM",113%
same,"viability, T/C","second compound 3.16 µM, first compound 3 µM",111%
same,"viability, T/C",[47],109%
same,"viability, T/C",[48],107%
same,"viability, T/C",[49],108%
same,"viability, T/C",[50],95.7%
same,"viability, T/C","second compound 10 µM, first compound 0.949 µM",100%
same,"viability, T/C","second compound 10 µM, first compound 3 µM",104%
Nc1ncn(C2CC(O)C(CO)S2)c(=O)n1 (stereo not given) + NC1CCC(NC2CC2c2ccccc2)CC1,pIC50,second compound 0.1 µM,< 6.52
same,pIC50,second compound 0.316 µM,< 6.52
same,pIC50,second compound 1 µM,< 6.52
same,pIC50,second compound 3.16 µM,< 6.52
same,pIC50,second compound 10 µM,< 6.52
same,"viability, T/C","second compound 0.1 µM, first compound 0.000949 µM",116%
same,"viability, T/C","second compound 0.1 µM, first compound 0.003 µM",95.5%
same,"viability, T/C",[31],104%
same,"viability, T/C",[32],91.1%
same,"viability, T/C",[33],89.6%
same,"viability, T/C",[34],80.5%
same,"viability, T/C","second compound 0.316 µM, first compound 0.000949 µM",106%
same,"viability, T/C","second compound 0.316 µM, first compound 0.003 µM",105%
same,"viability, T/C",[35],120%
same,"viability, T/C",[36],110%
same,"viability, T/C",[37],95.6%
same,"viability, T/C",[38],103%
same,"viability, T/C","second compound 1 µM, first compound 0.000949 µM",118%
same,"viability, T/C","second compound 1 µM, first compound 0.003 µM",112%
same,"viability, T/C",[39],107%
same,"viability, T/C",[40],97.6%
same,"viability, T/C",[41],87.6%
same,"viability, T/C",[42],87%
same,"viability, T/C","second compound 3.16 µM, first compound 0.000949 µM",112%
same,"viability, T/C","second compound 3.16 µM, first compound 0.003 µM",116%
same,"viability, T/C",[43],96.8%
same,"viability, T/C",[44],108%
same,"viability, T/C",[45],88.4%
same,"viability, T/C",[46],102%
same,"viability, T/C","second compound 10 µM, first compound 0.000949 µM",113%
same,"viability, T/C","second compound 10 µM, first compound 0.003 µM",125%
same,"viability, T/C",[47],101%
same,"viability, T/C",[48],104%
same,"viability, T/C",[49],93.4%
same,"viability, T/C",[50],98%
